Our source for the AC50 and EC50 values is ChEMBL document CHEMBL1201862, “PubChem BioAssay data set” (2004).

One data set has as its target Cytochrome P450 2C19 (Homo sapiens, UniProt P33261). Description: Cytochrome panel assay with activity outcomes. Panel member name: p450-cyp2c19 Compounds with AC50 equal or less than 10 uM are considered active. It counts as functional.
Data set [1] concerns the target T1, Heat shock factor protein 1 (Mus musculus, UniProt P38532).
T1 sequence (P38532 whole entry): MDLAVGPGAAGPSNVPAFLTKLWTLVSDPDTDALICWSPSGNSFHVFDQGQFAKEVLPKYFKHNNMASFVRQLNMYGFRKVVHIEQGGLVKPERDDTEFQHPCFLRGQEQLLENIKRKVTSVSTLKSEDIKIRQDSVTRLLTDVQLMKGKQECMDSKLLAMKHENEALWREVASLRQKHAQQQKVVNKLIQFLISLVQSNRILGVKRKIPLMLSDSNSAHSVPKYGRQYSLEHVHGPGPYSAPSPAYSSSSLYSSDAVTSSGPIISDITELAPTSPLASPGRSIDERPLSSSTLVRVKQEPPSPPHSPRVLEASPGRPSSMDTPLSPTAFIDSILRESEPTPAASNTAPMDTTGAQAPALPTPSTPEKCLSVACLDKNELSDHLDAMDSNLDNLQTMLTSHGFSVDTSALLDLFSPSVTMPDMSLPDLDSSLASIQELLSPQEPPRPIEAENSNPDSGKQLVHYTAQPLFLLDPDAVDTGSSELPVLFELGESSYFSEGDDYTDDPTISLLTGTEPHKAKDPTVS
The data set is described as follows: decrease of HSF1-responsive luciferase luminescence – cell-based, NIH3T3, dose retest, confirmation (AID 2382).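 Also: NIH3T3 fibroblasts with HSF1-driven luciferase reporter stressed by proteasome inhibitor MG132; luminescence from HSF1-driven luciferase expression after 8 hours of MG132 stress.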 The data set is classed as functional.

The next data set concerns the target T2, Cytochrome P450 1A2 (Homo sapiens, UniProt P05177).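 Also: PubChem cytochrome P450 panel assay, CYP1A2 panel member.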
T2 sequence (P05177 whole entry): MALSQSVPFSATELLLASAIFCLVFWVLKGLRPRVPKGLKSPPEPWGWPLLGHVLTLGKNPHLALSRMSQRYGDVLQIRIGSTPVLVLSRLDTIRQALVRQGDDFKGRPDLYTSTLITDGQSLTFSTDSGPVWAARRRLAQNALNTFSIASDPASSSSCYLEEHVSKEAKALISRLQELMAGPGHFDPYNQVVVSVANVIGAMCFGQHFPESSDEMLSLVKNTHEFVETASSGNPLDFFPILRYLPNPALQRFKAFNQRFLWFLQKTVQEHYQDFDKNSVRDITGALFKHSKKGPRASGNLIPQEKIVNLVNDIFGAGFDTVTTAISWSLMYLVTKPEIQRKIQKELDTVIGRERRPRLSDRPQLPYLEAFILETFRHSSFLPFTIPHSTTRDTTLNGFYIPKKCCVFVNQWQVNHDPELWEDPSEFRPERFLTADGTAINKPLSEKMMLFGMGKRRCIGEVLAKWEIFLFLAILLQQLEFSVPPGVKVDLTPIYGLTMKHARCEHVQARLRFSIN

Activity calls are given as the source filed them. Where only a bound is given, the exact number is not on record here.

Cytochrome P450 2C19, sequence (P33261 whole entry): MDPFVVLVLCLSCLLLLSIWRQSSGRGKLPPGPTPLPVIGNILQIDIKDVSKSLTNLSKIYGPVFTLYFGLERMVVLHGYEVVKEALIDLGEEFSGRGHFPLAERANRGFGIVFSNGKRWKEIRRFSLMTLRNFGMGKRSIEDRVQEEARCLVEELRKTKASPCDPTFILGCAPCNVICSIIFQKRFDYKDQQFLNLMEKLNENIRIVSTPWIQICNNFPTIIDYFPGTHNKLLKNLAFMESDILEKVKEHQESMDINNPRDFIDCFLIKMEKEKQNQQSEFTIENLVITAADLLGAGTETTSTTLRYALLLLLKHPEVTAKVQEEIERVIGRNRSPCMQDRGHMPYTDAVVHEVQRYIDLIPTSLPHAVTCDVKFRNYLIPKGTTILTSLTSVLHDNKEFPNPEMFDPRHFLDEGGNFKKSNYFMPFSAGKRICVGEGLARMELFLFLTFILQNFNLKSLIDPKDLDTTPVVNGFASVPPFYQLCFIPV

As a reminder, the AC50 is the concentration at which the activity in the assay is half-maximal. For `CN(C)c1ccc(-c2ccc3ncnc(N4CCNCC4)c3c2)cc1`, on Cytochrome P450 2C19 (read-out: AC50), the AC50 is 25.1 µM (inconclusive).

As a reminder, the EC50 is the concentration at which the effect is half-maximal. Consider `COC(=O)c1cn(NC(=O)CCC2CCCC2)c(=O)c2ccccc12`, for which the EC50 in data set [1] was > 195 µM (not active).

With `O=C1c2cccnc2C(=O)N1Cc1ccc(F)cc1`, the AC50 on Cytochrome P450 1A2 was 17.8 µM (inconclusive).

Take `COc1ccc(-n2nc3ccccc3n2)cc1`: the EC50 in data set [1] is given as > 195 µM (not active).

Turning to `CCOC(=O)N1CCN(c2c(O)nc3ccc(Cl)cc3c2-c2ccccc2)CC1`, on Cytochrome P450 1A2, the AC50 was 0.158 µM (inconclusive).

Turning to `CCCOc1ccc2cc(C(=O)NCc3ccccc3)c(=O)oc2c1`, the EC50 in data set [1] is 42 µM (active).

For the compound `C#CCCCO/N=C1/C[C@@H](O)[C@@H](O)[C@@H]2[C@@H]3C(=O)N(Cc4ccccc4)C(=O)[C@H]3CC[C@@H]12`, the AC50 entry on Cytochrome P450 2C19 is “inconclusive”.

`COc1ccc(Nc2nc(Nc3ccc(OC)cc3)nc(-n3[nH]c(=O)c(C)c3C)n2)cc1`: in data set [1], the EC50 was 22.3 µM (active).

Take `O=C(O)c1csc(-c2ccccc2)n1`: the EC50 in data set [1] is reported as > 195 µM (not active).

`O=C(CCCC(=O)N(c1ccc2c(c1)OCCO2)C(C(=O)NC1CCCCC1)c1ccc(Cl)cc1)Nc1ccccn1` (stereo unspecified): the EC50 in data set [1] is on record as > 195 µM (not active).

Consider `CCOC(=O)c1ccc(OC(=O)CCCCCNC(=N)N)cc1` [GABEXATE], for which the AC50 on Cytochrome P450 1A2 is 15.8 µM (inconclusive).

As to `COC(=O)[C@@]1(Cc2ccc(F)cc2)[C@H]2c3cc(C(=O)N(C)C)n(Cc4c(CO)ncc(C)c4O)c3C[C@H]2CN1C(=O)c1ccccc1`, the AC50 on Cytochrome P450 2C19 (read-out: AC50) and at Cytochrome P450 1A2 was 25.1 µM (inconclusive) throughout.

Consider `CC(=O)c1cccc(NC(=O)CN2C(S)=NC(C)(C)CC2C)c1` (stereo unspecified), for which the EC50 in data set [1] is reported as > 195 µM (not active).

In the case of `O=C(N[C@@H](c1ccccc1)[C@@H]1C[C@H]1C(=O)O)OCc1ccccc1`, the AC50 at Cytochrome P450 1A2 is 20 µM (inconclusive).

As for `CNC(=O)[C@H](C)[C@H]1C[C@]1(C)[C@H](NC(=O)OCc1ccccc1)c1ccccc1`, the AC50 at Cytochrome P450 1A2 was 20 µM (inconclusive).

Take `N=c1ccn2c(n1)O[C@H]1[C@@H](OP(=O)(O)O)[C@H](CO)O[C@H]12`: the AC50 entry at Cytochrome P450 2C19 is “inconclusive”.

Consider `O=C(O)c1ccc(N2C=[N+]3C(=Nc4ccccc43)C2)cc1`, for which, at Cytochrome P450 1A2, the AC50 was 5.01 µM (inconclusive).

In the case of `Cc1ccc(F)cc1NC(=O)CCNC(=O)c1ccc([N+](=O)[O-])cc1`, in data set [1], the EC50 is > 195 µM (not active).

As for `CCCn1c(N)c(C(=O)CSc2nc3ccccc3c(=O)n2Cc2ccccc2)c(=O)[nH]c1=O`, in data set [1], the EC50 is > 195 µM (not active).

As for `COc1ccc(/C=N/NC(=O)Nc2cccc3nsnc23)cc1OC`, the EC50 in data set [1] was 9.51 µM (active).

Take `CC(=O)Nc1cccc(-n2c(=O)n(Cc3ccccc3)c(=O)c3[nH]cnc32)c1`: the EC50 in data set [1] was > 195 µM (not active).

For the compound `CN(C)CCOC(=O)C1(c2ccccc2)CCOCC1`, the AC50 on Cytochrome P450 2C19 (read-out: AC50) is 20 µM (inconclusive).

On to `CCOC(=O)c1nnc(O)c2ccccc12`, for which the EC50 in data set [1] is listed as > 195 µM (not active).

As to `Cn1c(=O)c2c(nc(Sc3ncnn3CC(=O)N3CCOCC3)n2C)n(C)c1=O`, the EC50 in data set [1] is recorded as > 195 µM (not active).

With `Cc1cccc(-c2ocnc2C(=O)N2CCN(C(=O)c3cccs3)CC2)c1`, the EC50 in data set [1] is recorded as > 195 µM (not active).
